Reference: US6648952B1, “Anthrapyridone compound, aqueous magenta ink compositions and ink-jet recording method” (Nippon Kayaku Kabushiki Kaisha, priority 1999, dated 2003)
Counter-ions that a name gives are not always drawn.

Assay: Solubility of the dye in pure water
Format: physicochemical
Conditions: pure water (ion exchanged water), 25° C.

Work on `CC(C)(C)CC(C)(C)c1ccc(Oc2cc(Nc3ccc(S(=O)(=O)O)cc3)c3c4c(c(C(=O)c5ccccc5)c(=O)[nH]c24)-c2ccccc2C3=O)c(S(=O)(=O)O)c1` [Example M1, sodium salt of anthrapyridone disulfonic acid of Formula (1)] yielded a solubility of 100 mg/mL.
